Laboratory results published in ChEMBL document CHEMBL1201862, “PubChem BioAssay data set” (2004).
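Test compounds were applied to cells in 96-well plates for 48 hours at 5 doses. Here, GI50 denotes the concentration required for 50% inhibition of growth.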 Activity calls are given as the source filed them. Rule as the data show it: active = GI50 up to about 1.1 µM and inactive = higher.

Tests used:
Assay in all cases: NCI tumour cell line growth inhibition, 48 h
786-0 = test system: 786-0
A498 = test system: A498
A549 = test system: A549
ACHN = test system: ACHN
BT-549 = test system: BT-549
CAKI-1 = test system: CAKI-1
CCRF-CEM = test system: CCRF-CEM
COLO 205 = test system: COLO 205
DU-145 = test system: DU-145
EKVX = test system: EKVX
HCC 2998 = test system: HCC 2998
HCT-116 = test system: HCT-116
HCT-15 = test system: HCT-15
HL-60 = test system: HL-60
HOP-62 = test system: HOP-62
HOP-92 = test system: HOP-92
HT-29 = test system: HT-29
Hs-578T = test system: Hs-578T
IGROV-1 = test system: IGROV-1
K562 = test system: K562
KM12 = test system: KM12
LOX IMVI = test system: LOX IMVI
M14 = test system: M14
MCF7 = test system: MCF7
MDA-MB-231 = test system: MDA-MB-231
MDA-MB-435 = test system: MDA-MB-435
MDA-N = test system: MDA-N
MOLT-4 = test system: MOLT-4
Malme-3M = test system: Malme-3M
NCI-H226 = test system: NCI-H226
NCI-H23 = test system: NCI-H23
NCI-H460 = test system: NCI-H460
NCI-H522 = test system: NCI-H522
NCI/ADR-RES = test system: NCI/ADR-RES
OVCAR-3 = test system: OVCAR-3
OVCAR-4 = test system: OVCAR-4
OVCAR-5 = test system: OVCAR-5
OVCAR-8 = test system: OVCAR-8
PC-3 = test system: PC-3
RPMI-8226 = test system: RPMI-8226
RXF 393 = test system: RXF 393
SF-268 = test system: SF-268
SF-295 = test system: SF-295
SF-539 = test system: SF-539
SK-MEL-28 = test system: SK-MEL-28
SK-MEL-2 = test system: SK-MEL-2
SK-MEL-5 = test system: SK-MEL-5
SK-OV-3 = test system: SK-OV-3
SN12C = test system: SN12C
SNB-19 = test system: SNB-19
SNB-75 = test system: SNB-75
SW-620 = test system: SW-620
T47D = test system: T47D
TK-10 = test system: TK-10
U-251 = test system: U-251
UACC-257 = test system: UACC-257
UACC-62 = test system: UACC-62
UO-31 = test system: UO-31

CC1=CC(=O)c2ccccc2C1=O [MENADIONE]
GI50 (786-0): 14.6 µM (inactive) | GI50 (A498): 22.6 µM (inactive) | GI50 (A549): 18.5 µM (inactive) | GI50 (ACHN): 3.36 µM (inactive) | GI50 (BT-549): 12.3 µM (inactive) | GI50 (CAKI-1): 16.1 µM (inactive) | GI50 (CCRF-CEM): 2.03 µM (inactive) | GI50 (COLO 205): 17.7 µM (inactive) | GI50 (DU-145): 15.9 µM (inactive) | GI50 (EKVX): 17.2 µM (inactive) | GI50 (HCC 2998): 17 µM (inactive) | GI50 (HCT-116): 2 µM (inactive) | GI50 (HCT-15): 3.42 µM | GI50 (HL-60): 2 µM (inactive) | GI50 (HOP-62): 16.1 µM (inactive) | GI50 (HOP-92): 1.55 µM (inactive) | GI50 (HT-29): 17.9 µM (inactive) | GI50 (Hs-578T): 10.7 µM (inactive) | GI50 (IGROV-1): 15.7 µM (inactive) | GI50 (K562): 2.38 µM (inactive) | GI50 (KM12): 10.7 µM (inactive) | GI50 (LOX IMVI): 2.04 µM (inactive) | GI50 (M14): 5.66 µM (inactive) | GI50 (MCF7): 8.34 µM (inactive) | GI50 (MDA-MB-231): 5.06 µM (inactive) | GI50 (MDA-MB-435): 1.84 µM (inactive) | GI50 (MDA-N): 0.91 µM (active) | GI50 (MOLT-4): 1.77 µM (inactive) | GI50 (Malme-3M): 4.76 µM (inactive) | GI50 (NCI-H226): 14.3 µM (inactive) | GI50 (NCI-H23): 7.06 µM (inactive) | GI50 (NCI-H460): 11.5 µM (inactive) | GI50 (NCI-H522): 5.06 µM (inactive) | GI50 (NCI/ADR-RES): 11.9 µM (inactive) | GI50 (OVCAR-3): 11.1 µM (inactive) | GI50 (OVCAR-4): 3.87 µM (inactive) | GI50 (OVCAR-5): 11.8 µM (inactive) | GI50 (OVCAR-8): 10.1 µM (inactive) | GI50 (PC-3): 3.61 µM (inactive) | GI50 (RPMI-8226): 1.72 µM (inactive) | GI50 (RXF 393): 13.4 µM (inactive) | GI50 (SF-268): 7.52 µM (inactive) | GI50 (SF-295): 16.5 µM (inactive) | GI50 (SF-539): 3.61 µM (inactive) | GI50 (SK-MEL-28): 4.94 µM (inactive) | GI50 (SK-MEL-2): 8.3 µM (inactive) | GI50 (SK-MEL-5): 2.18 µM (inactive) | GI50 (SK-OV-3): 13 µM (inactive) | GI50 (SN12C): 12.4 µM (inactive) | GI50 (SNB-19): 17.9 µM (inactive) | GI50 (SNB-75): 10.2 µM (inactive) | GI50 (SW-620): 2.14 µM (inactive) | GI50 (T47D): 2.01 µM (inactive) | GI50 (TK-10): 19.9 µM (inactive) | GI50 (U-251): 13.4 µM (inactive) | GI50 (UACC-257): 4.17 µM (inactive) | GI50 (UACC-62): 4.67 µM (inactive) | GI50 (UO-31): 2.65 µM (inactive)
